Assay: Measurement of hydrogen peroxide remaining ratio in a virtual hair bleach composition (Cu, ammonia, H2O2; iodometric titration)
Settings: 20.0 mg compound, aqueous Cu solution, stirred 10 minutes at 30° C.
Description: The first requirement is a remaining ratio of hydrogen peroxide. The remaining ratio of hydrogen peroxide is determined by measuring the remaining amount of hydrogen peroxide in a virtual hair bleach composition after a predetermined time. The remaining ratio exceeding a predetermined value allows existence of hydrogen peroxide which can be used for hair bleaching or dyeing and promotes the hair bleaching action. The remaining ratio below a predetermined value, on the other hand, prevents excessive stabilization of hydrogen peroxide, whereby the oxidizing agent acts to emit adequate —O2H (perhydroxy anion).
The hydrogen peroxide remaining ratio in the present invention is measured in the following manner. Measurement of hydrogen peroxide remaining ratio %: In a 50 mL screw tube are charged 20.0 mg of Compound (A) and 5.98 g of deionized water to dissolve the former in the latter. […] The point when a violet color (bluish violet to reddish violet) disappears completely is designated as a terminal point and hydrogen peroxide % is determined in accordance with the below-described equation. The amount of hydrogen peroxide in an aqueous solution obtained by diluting 10.00 of 2% aqueous hydrogen peroxide with 10.00 g of deionized water is also measured and the hydrogen peroxide amount at this time is taken as a hydrogen peroxide remaining ratio of 100%.

## NCCCN [1,3-Propanediamine]
  Hydrogen peroxide remaining ratio: 19.3%

From US7211116B2, “Hair dye composition” (Kao Corporation, priority 2001, dated 2007)
